Test results reported in publication PMC4607644 (Bioorganic & medicinal chemistry letters, 2015).
Where two headings read alike, the source gives them in different places.

Key:
[1] = Phase 1 and 2 metabolism; cited from earlier work
InhA = settings: binds preferentially to InhA:NAD+ complex; cited from earlier work
[2] = in vivo, iv
M. tuberculosis = settings: cited from earlier work
[3] = tested on: Staphylococcus aureus FabI (saFabI); settings: cited from earlier work
MRSA = settings: cited from earlier work
PET brain uptake = settings: baboon, i.v.
[4] = parameters: species or system mice; settings: mouse, in vivo
[5] = parameters: species or system baboon; settings: in vivo

**Q.** With `CCCCCCc1ccc(Oc2ccccc2)c(O)c1` [PT04] as the compound, how does the route of metabolism [1] read?
**A.** Its route of metabolism is “O-glucuronidation was a primary route for metabolism”.

**Q.** Which “residence time on the target” value (InhA) does the source give for `CCCCCCc1ccc(Oc2ccccc2C)c(O)c1` [PT70] here?
**A.** The value was 24 min.

**Q.** And the “ability to penetrate the blood brain barrier (BBB)” value [2]?
**A.** Its value is “able to penetrate the brain”.

**Q.** And the “antibacterial activity in a mouse model of tuberculosis infection” value (M. tuberculosis)?
**A.** Its value is “shows antibacterial activity”.

**Q.** And the “bacterial burden in the lungs” value (M. tuberculosis; infected mice, lungs)?
**A.** The value was “did not affect the bacterial burden”.

**Q.** What about the “bacterial load in the spleens” value (M. tuberculosis; infected mice, spleens) of the same compound?
**A.** The value was “reduced the bacterial load”.

**Q.** For `CCCCCCc1ccc(Oc2ccccc2C#N)c(O)c1` [PT119], which “residence time on saFabI” value [3] is on record?
**A.** The value was ~ 12.5 h.

**Q.** What about the “efficacy in a mouse model of MRSA infection” value (MRSA) of the same compound?
**A.** Its value is “demonstrates efficacy”.

**Q.** And the “ability to penetrate the blood brain barrier (BBB)” value (PET brain uptake; images acquired for 90 min)?
**A.** Its value is “able to penetrate the brain”.

**Q.** And the “propensity to cross the BBB, qualitative comparison” value (PET brain uptake; qualitative)?
**A.** Its value is “higher propensity to cross the BBB than PT70”.

**Q.** Which “concentration in the liver versus other peripheral organs” value [4] does the source give for `CCCCCCc1ccc(Oc2ccccc2[11CH3])c(O)c1` [[^11C]PT70] here?
**A.** The value was “much higher in the liver”.

**Q.** What about the “time of highest concentration of drug after injection” value [4] of the same compound?
**A.** Its value is 20 min.

**Q.** And the “elimination into the bladder” value ([5]; baboon)?
**A.** The value was “another large portion of the injected [11C]PT-70 was eliminated into the bladder”.

**Q.** What about the “clearance from the heart, lung and blood” value ([5]; iv) of the same compound?
**A.** Its value is “cleared rapidly”.
